From patent publication US20250186541A1, “DLL3 TARGETING PEPTIDES AND CONSTRUCTS THEREOF” (MARIANA ONCOLOGY INC., priority 2023, published 2025)
Numbered stars: 1 amine (or outer) side, 2 acyl side, 3 side chain; on linkers, the order of the positions; unused ones are H or OH. Bridge positions count the residues as written; N and C are the ends. Square brackets hold non-standard residues; d marks the D form. Peptide text beside a SMILES is read from it. * marks the point of attachment. ξ: configuration not given here. X1 = C[C@@]1(C(=O)C[C@@H](Cc2ccccc2)C(=O)[*:2])CCCN1[*:1]; DOTA = O=C(O)CN1CCN(CC(=O)O)CCN(CC(=O)*)CCN(CC(=O)O)CC1; Phe(2-Cl) = N[C@@H](Cc1ccccc1Cl)C(=O)O; 1Nal = N[C@@H](Cc1cccc2ccccc12)C(=O)O; 2Nal = N[C@@H](Cc1ccc2ccccc2c1)C(=O)O; Phe(2-Me) = Cc1ccccc1C[C@H](N)C(=O)O; 3Pal = N[C@@H](Cc1cccnc1)C(=O)O; Chg = N[C@H](C(=O)O)C1CCCCC1; Pen = CC(C)(S)[C@H](N)C(=O)O; Tle = CC(C)(C)[C@H](N)C(=O)O; αMeP = C[C@@]1(C(=O)O)CCCN1; Pip = O=C(O)[C@@H]1CCCCN1; CH2 = C([*:1])[*:2]; ξC = NC(CS)C(=O)O

Target: T1, human DLL3 (Homo sapiens, UniProt Q9NYJ7)
T1 construct: biotin (biotinylated)
T1 sequence (Q9NYJ7 27-618): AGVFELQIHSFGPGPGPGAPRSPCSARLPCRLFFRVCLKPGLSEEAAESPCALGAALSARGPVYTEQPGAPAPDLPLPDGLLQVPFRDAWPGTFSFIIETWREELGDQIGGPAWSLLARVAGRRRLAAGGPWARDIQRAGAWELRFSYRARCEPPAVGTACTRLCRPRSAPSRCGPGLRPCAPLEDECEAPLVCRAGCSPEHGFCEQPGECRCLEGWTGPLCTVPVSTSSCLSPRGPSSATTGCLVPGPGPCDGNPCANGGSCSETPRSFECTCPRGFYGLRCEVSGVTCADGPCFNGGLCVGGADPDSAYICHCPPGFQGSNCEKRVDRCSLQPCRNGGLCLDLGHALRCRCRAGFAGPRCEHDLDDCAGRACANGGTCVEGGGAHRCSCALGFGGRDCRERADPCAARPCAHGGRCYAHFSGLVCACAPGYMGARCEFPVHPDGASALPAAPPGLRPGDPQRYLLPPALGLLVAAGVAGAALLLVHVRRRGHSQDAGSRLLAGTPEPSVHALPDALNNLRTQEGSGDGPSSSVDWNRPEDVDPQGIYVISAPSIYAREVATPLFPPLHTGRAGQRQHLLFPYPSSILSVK
Experiment: Affinity determination by Surface Plasmon Resonance (SPR), Biacore, 1:1 binding model
Details: biotinylated human DLL3 on streptavidin chip, 25° C.; NB = nonbinding
Method in brief: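 SPR with biotinylated human DLL3 captured on a streptavidin chip, with a reference surface subtracted. Samples were injected at several concentrations at 100 μL/min in phosphate buffer with 137 mM NaCl, 2.7 mM KCl, 0.05% P20 and 2% DMSO. Kinetic and affinity constants came from a 1:1 binding fit.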

Row | Kd | SPR KD (nM) | SMILES
1 | 0.74 nM | – | CC(=O)N[C@H](C(=O)N[C@@H](CO)C(=O)N[C@@H](CC(=O)O)C(=O)N[C@H]1CSSC[C@@H](C(=O)N2CCC[C@@]2(C)C(=O)N[C@@H](Cc2ccccc2Cl)C(=O)N[C@@H](CC(=O)O)C(=O)N[C@H](CCCCNC(=O)CN2CCN(CC(=O)O)CCN(CC(=O)O)CCN(CC(=O)O)CC2)C(N)=O)NC(=O)[C@H](CC(N)=O)NC(=O)[C@H](Cc2c[nH]c3ccccc23)NC(=O)[C@H](CCC(N)=O)NC(=O)[C@H](CC(C)C)NC(=O)[C@H](Cc2cccc3ccccc23)NC1=O)C1CCCCC1 [compound 118, Ac-(Chg)-S-D-C(3)-(1Nal)-L-Q-W-N-C(3)-(aMe-P)-(2Cl-Phe)-D-D-Lys(DOTA)-CONH2] (Ac-[Chg]SDC[1Nal]LQWNC[αMeP][Phe(2-Cl)]D[dK](DOTA)-NH2; disulfide 4-10)
2 | 0.65 nM | – | CC(=O)N[C@H](C(=O)N[C@@H](CO)C(=O)N[C@@H](CC(=O)O)C(=O)N[C@H]1CSSC[C@@H](C(=O)N2CCC[C@@]2(C)C(=O)N[C@@H](Cc2ccccc2C)C(=O)N[C@@H](CC(=O)O)C(=O)N[C@H](CCCCNC(=O)CN2CCN(CC(=O)O)CCN(CC(=O)O)CCN(CC(=O)O)CC2)C(N)=O)NC(=O)[C@H](CC(N)=O)NC(=O)[C@H](Cc2c[nH]c3ccccc23)NC(=O)[C@H](CCC(N)=O)NC(=O)[C@H](CC(C)C)NC(=O)[C@H](Cc2cccc3ccccc23)NC1=O)C1CCCCC1 [compound 119, Ac-(Chg)-S-D-C(3)-(1Nal)-L-Q-W-N-C(3)-(aMe-P)-(2Me-Phe)-D-D-Lys(DOTA)-CONH2] (Ac-[Chg]SDC[1Nal]LQWNC[αMeP][Phe(2-Me)]D[dK](DOTA)-NH2; disulfide 4-10)
3 | > 30 nM | – | CC(=O)N[C@H](C(=O)N[C@@H](CO)C(=O)N[C@@H](CC(=O)O)C(=O)N[C@H]1CSSC(C)(C)[C@@H](C(=O)N2CCC[C@@]2(C)C(=O)N[C@@H](Cc2ccccc2)C(=O)N[C@@H](CC(=O)O)C(=O)N[C@H](CCCCNC(=O)CN2CCN(CC(=O)O)CCN(CC(=O)O)CCN(CC(=O)O)CC2)C(N)=O)NC(=O)[C@H](CC(N)=O)NC(=O)[C@H](Cc2c[nH]c3ccccc23)NC(=O)[C@H](CCC(N)=O)NC(=O)[C@H](CC(C)C)NC(=O)[C@H](Cc2cccc3ccccc23)NC1=O)C1CCCCC1 [compound 120, Ac-(Chg)-S-D-C(3)-(1Nal)-L-Q-W-N-Pen(3)-(aMe-P)-F-D-D-Lys(DOTA)-CONH2] (Ac-[Chg]SDC[1Nal]LQWN[Pen][αMeP]FD[dK](DOTA)-NH2; disulfide 4-10)
4 | > 30 nM | – | CC(=O)N[C@H](C(=O)N[C@@H](CO)C(=O)N[C@@H](CC(=O)O)C(=O)NC1CSCSC[C@@H](C(=O)N2CCC[C@@]2(C)C(=O)N[C@@H](Cc2ccccc2)C(=O)N[C@@H](CC(=O)O)C(=O)N[C@H](CCCCNC(=O)CN2CCN(CC(=O)O)CCN(CC(=O)O)CCN(CC(=O)O)CC2)C(N)=O)NC(=O)[C@H](CC(N)=O)NC(=O)[C@H](Cc2c[nH]c3ccccc23)NC(=O)[C@H](CCC(N)=O)NC(=O)[C@H](CC(C)C)NC(=O)[C@H](Cc2cccc3ccccc23)NC1=O)C1CCCCC1 (stereo partly drawn) [compound 121, Ac-(Chg)-S-D-[D-Cys(1)]-(1Nal)-L-Q-W-N-C(1)-(aMe-P)-F-D-D-Lys(DOTA)-CONH2] (Ac-[Chg]SD[ξC][1Nal]LQWNC[αMeP]FD[dK](DOTA)-NH2; linker 4-10 via CH2)
5 | > 30 nM | – | CC(=O)N[C@H](C(=O)N[C@@H](CO)C(=O)N[C@@H](CC(=O)O)C(=O)N[C@H]1CSCSC[C@H](C(=O)N2CCC[C@@]2(C)C(=O)N[C@@H](Cc2ccccc2)C(=O)N[C@@H](CC(=O)O)C(=O)N[C@H](CCCCNC(=O)CN2CCN(CC(=O)O)CCN(CC(=O)O)CCN(CC(=O)O)CC2)C(N)=O)NC(=O)[C@H](CC(N)=O)NC(=O)[C@H](Cc2c[nH]c3ccccc23)NC(=O)[C@H](CCC(N)=O)NC(=O)[C@H](CC(C)C)NC(=O)[C@H](Cc2cccc3ccccc23)NC1=O)C1CCCCC1 [compound 122, Ac-(Chg)-S-D-C(1)-(1Nal)-L-Q-W-N-[D-Cys(1)]-(aMe-P)-F-D-D-Lys(DOTA)-CONH2] (Ac-[Chg]SDC[1Nal]LQWN[dC][αMeP]FD[dK](DOTA)-NH2; linker 4-10 via CH2)
6 | 0.34 nM | – | CC(=O)N[C@H](C(=O)N[C@@H](CO)C(=O)N[C@@H](CC(=O)O)C(=O)N[C@H]1CSSC[C@@H](C(=O)N2CCC[C@@]2(C)C(=O)N[C@@H](Cc2ccccc2)C(=O)N[C@@H](CC(=O)O)C(=O)N[C@H](CCCCNC(=O)CN2CCN(CC(=O)O)CCN(CC(=O)O)CCN(CC(=O)O)CC2)C(N)=O)NC(=O)[C@H](CC(N)=O)NC(=O)[C@H](Cc2c[nH]c3ccccc23)NC(=O)[C@H](CCC(N)=O)NC(=O)[C@H](C2CCCCC2)NC(=O)[C@H](Cc2cccc3ccccc23)NC1=O)C1CCCCC1 [compound 123, Ac-(Chg)-S-D-C(3)-(1Nal)-Chg-Q-W-N-C(3)-(aMe-P)-F-D-D-Lys(DOTA)-CONH2] (Ac-[Chg]SDC[1Nal][Chg]QWNC[αMeP]FD[dK](DOTA)-NH2; disulfide 4-10)
7 | 0.15 nM | – | CC(=O)N[C@H](C(=O)N[C@@H](CO)C(=O)N[C@@H](CC(=O)O)C(=O)N[C@H]1CSSC[C@@H](C(=O)N2CCC[C@@]2(C)C(=O)N[C@@H](Cc2ccccc2)C(=O)N[C@@H](CC(=O)O)C(=O)N[C@H](CCCCNC(=O)CN2CCN(CC(=O)O)CCN(CC(=O)O)CCN(CC(=O)O)CC2)C(N)=O)NC(=O)[C@H](CC(N)=O)NC(=O)[C@H](Cc2ccc3ccccc3c2)NC(=O)[C@H](CCC(N)=O)NC(=O)[C@H](CC(C)C)NC(=O)[C@H](Cc2cccc3ccccc23)NC1=O)C1CCCCC1 [compound 124, Ac-(Chg)-S-D-C(3)-(1Nal)-L-Q-(2Nal)-N-C(3)-(aMe-P)-F-D-D-Lys(DOTA)-CONH2] (Ac-[Chg]SDC[1Nal]LQ[2Nal]NC[αMeP]FD[dK](DOTA)-NH2; disulfide 4-10)
8 | 0.26 nM | – | CC(=O)N[C@H](C)C(=O)N[C@H](CO)C(=O)N[C@@H](CC(=O)O)C(=O)N[C@H]1CSSC[C@@H](C(=O)N2CCC[C@@]2(C)C(=O)C[C@@H](Cc2ccccc2)C(=O)N[C@@H](CC(=O)O)C(=O)N[C@H](CCCCNC(=O)CN2CCN(CC(=O)O)CCN(CC(=O)O)CCN(CC(=O)O)CC2)C(N)=O)NC(=O)[C@H](CC(N)=O)NC(=O)[C@H](Cc2ccc3ccccc3c2)NC(=O)[C@H](CCC(N)=O)NC(=O)[C@H](C2CCCCC2)NC(=O)[C@H](Cc2cccc3ccccc23)NC1=O [compound 126, Ac-(D-Ala)-(D-Ser)-D-C(3)-(1Nal)-(Chg)-Q-(2Nal)-N-C(3)-(aMe-P)-F-D-D-Lys(DOTA)-CONH2] (Ac-[dA][dS]DC[1Nal][Chg]Q[2Nal]NC[X1]D[dK](DOTA)-NH2; disulfide 4-10)
9 | 0.5 nM | – | CC(=O)N[C@H](C)C(=O)N[C@H](CO)C(=O)N[C@@H](CC(=O)O)C(=O)N[C@H]1CSSC[C@@H](C(=O)N2CCC[C@@]2(C)C(=O)N[C@@H](Cc2ccccc2)C(=O)N[C@@H](CC(=O)O)C(=O)N[C@H](CCCCNC(=O)CN2CCN(CC(=O)O)CCN(CC(=O)O)CCN(CC(=O)O)CC2)C(N)=O)NC(=O)[C@H](CC(N)=O)NC(=O)[C@H](Cc2ccc3ccccc3c2)NC(=O)[C@H](Cc2cccnc2)NC(=O)[C@H](C2CCCCC2)NC(=O)[C@H](Cc2cccc3ccccc23)NC1=O [compound 127, Ac-(D-Ala)-(D-Ser)-D-C(3)-(1Nal)-(Chg)-(3Pya)-(2Nal)-N-C(3)-(aMe-P)-F-D-D-Lys(DOTA)-CONH2] (Ac-[dA][dS]DC[1Nal][Chg][3Pal][2Nal]NC[αMeP]FD[dK](DOTA)-NH2; disulfide 4-10)
10 | – | slow kon | CC(=O)N[C@H](C(=O)N[C@@H](CO)C(=O)N[C@@H](CC(=O)O)C(=O)N[C@H]1CSSC[C@@H](C(=O)N2CCC[C@@]2(C)C(=O)N[C@@H](Cc2ccccc2)C(=O)N[C@@H](CC(=O)O)C(=O)N[C@H](CCCCNC(=O)CN2CCN(CC(=O)O)CCN(CC(=O)O)CCN(CC(=O)O)CC2)C(N)=O)NC(=O)[C@H](CC(N)=O)NC(=O)[C@H](Cc2ccc3ccccc3c2)NC(=O)[C@H](CCC(N)=O)NC(=O)[C@H](C(C)(C)C)NC(=O)[C@H](Cc2cccc3ccccc23)NC1=O)C1CCCCC1 [compound 129, Ac-(Chg)-S-D-C(3)-(1Nal)-(TBG)-Q-(2Nal)-N-C(3)-(aMe-P)-F-D-D-Lys(DOTA)-CONH2] (Ac-[Chg]SDC[1Nal][Tle]Q[2Nal]NC[αMeP]FD[dK](DOTA)-NH2; disulfide 4-10)
11 | – | slow kon | CC(=O)N[C@H](C(=O)N[C@@H](CO)C(=O)N[C@@H](CC(=O)O)C(=O)N[C@H]1CSSC[C@@H](C(=O)N2CCC[C@@]2(C)C(=O)N[C@@H](Cc2ccccc2)C(=O)N[C@@H](CC(=O)O)C(=O)N[C@H](CCCCNC(=O)CN2CCN(CC(=O)O)CCN(CC(=O)O)CCN(CC(=O)O)CC2)C(N)=O)NC(=O)[C@H](CC(N)=O)NC(=O)[C@H](Cc2ccc3ccccc3c2)NC(=O)[C@H](CCC(N)=O)NC(=O)[C@@H]2CCCCN2C(=O)[C@H](Cc2cccc3ccccc23)NC1=O)C1CCCCC1 [compound 130, Ac-(Chg)-S-D-C(3)-(1Nal)-(PIP)-Q-(2Nal)-N-C(3)-(aMe-P)-F-D-D-Lys(DOTA)-CONH2] (Ac-[Chg]SDC[1Nal][Pip]Q[2Nal]NC[αMeP]FD[dK](DOTA)-NH2; disulfide 4-10)
